# From ChEMBL document CHEMBL6109143, “Adamantane-Quinoxalone Hybrids: Precision Chemotypes and Their Molecular Mechanisms in Acute Myeloid Leukemia” (J Med Chem, 2025)
# Calls of active or inactive are those of the source. The rule behind the calls is not given here.
# How the values were obtained:
# Kasumi 1 [1] = assay: Cytotoxicity against human Kasumi 1 cells assessed as reduction in cell viability at 50 uM incubated for 24 hrs by MTT assay relative to control; format: functional
# Kasumi 1 [2] = assay: Downregulation of MYCN gene expression in human Kasumi 1 cells at IC50 concentration incubated for 24 hrs by RNA sequencing analysis; format: functional, cell-based
# A549 = assay: Cytotoxicity against human A549 cells assessed as cell viability at 1 to 50 uM incubated for 24 hrs by MTT assay; format: functional, cell-based; settings: dose 1-50 µM
# Kasumi 1 [3] = assay: Effect on glycolysis pathway related protein expression in human Kasumi 1 cells by GSEA; format: functional, cell-based
# Kasumi 1 [4] = assay: Effect on mTORC1 signaling related protein expression in human Kasumi 1 cells by GSEA; format: functional, cell-based
# [5] = Cytotoxicity against human Oral epithelial cells assessed as cell viability incubated for 24 hrs by MTT assay; format: toxicity, cell-based
# Kasumi 1 [6] = assay: Induction of cell cycle arrest in human Kasumi 1 cells assessed as increase in cells at S phase at IC50 concentration incubated for 24 hrs by PI staining based flow cytometric analysis (reference value: 27.09 %); format: functional
# Kasumi 1 [7] = assay: Cytotoxicity against human Kasumi 1 cells harboring chromosomal translocation(8;21) assessed as reduction in cell viability incubated for 24 hrs by MTT assay; format: functional, cell-based; settings: Kasumi 1, 24 h
# Kasumi 1 [8] = assay: Downregulation of MELK protein expression in human Kasumi 1 cells at IC50 concentration incubated for 24 hrs by LC-MS/MS analysis; format: functional, cell-based
# Kasumi 1 [9] = assay: Downregulation of KRAS signaling related genes in human Kasumi 1 cells at IC50 concentration incubated for 24 hrs by RNA sequencing analysis; format: functional, cell-based
# Kasumi 1 [10] = assay: Downregulation of UGFR1 gene expression in human Kasumi 1 cells at IC50 concentration incubated for 24 hrs by RNA sequencing analysis; format: functional, cell-based
# Kasumi 1 [11] = assay: Downregulation of CD109 gene expression in human Kasumi 1 cells at IC50 concentration incubated for 24 hrs by RNA sequencing analysis; format: functional, cell-based
# ARPE-19 = assay: Cytotoxicity against human ARPE-19 cells assessed as reduction in cell viability incubated for 24 hrs by MTT assay; format: toxicity, cell-based; settings: arpe-19, 24 h
# Kasumi 1 [12] = assay: Downregulation of CDK1 protein expression in human Kasumi 1 cells at IC50 concentration incubated for 24 hrs by LC-MS/MS analysis; format: functional, cell-based
# Kasumi 1 [13] = assay: Downregulation of BCL6 gene expression in human Kasumi 1 cells at IC50 concentration incubated for 24 hrs by RNA sequencing analysis; format: functional, cell-based
# Kasumi 1 [14] = assay: Downregulation of HMMR gene expression in human Kasumi 1 cells at IC50 concentration incubated for 24 hrs by RNA sequencing analysis; format: functional, cell-based
# Kasumi 1 [15] = assay: Effect on MYC target related protein expression in human Kasumi 1 cells by GSEA; format: functional, cell-based
# Kasumi 1 [16] = assay: Induction of apoptosis in human Kasumi 1 cells assessed as necrotic apoptotic cells at IC50 concentration incubated for 24 hrs by Annexin V/PI staining based flow cytometric analysis (reference value: 0.12 %); format: functional
# Kasumi 1 [17] = assay: Effect on E2F target related protein expression in human Kasumi 1 cells by GSEA; format: functional, cell-based
# Kasumi 1 [18] = assay: Downregulation of KRAS signaling pathway related genes in human Kasumi 1 cells at IC50 concentration incubated for 24 hrs by RNA sequencing analysis; format: functional, cell-based
# Kasumi 1 [19] = assay: Induction of apoptosis in human Kasumi 1 cells assessed as viable cells at IC50 concentration incubated for 24 hrs by Annexin V/PI staining based flow cytometric analysis (reference value: 95.43 %); format: functional
# Kasumi 1 [20] = assay: Upregulation of interferon-alpha response related genes in human Kasumi 1 cells at IC50 concentration incubated for 24 hrs by RNA sequencing analysis; format: functional, cell-based
# Kasumi 1 [21] = assay: Effect on oxidative phosphorylation related protein expression in human Kasumi 1 cells by GSEA; format: functional, cell-based
# Kasumi 1 [22] = assay: Induction of apoptosis in human Kasumi 1 cells assessed as early apoptotic cells at IC50 concentration incubated for 24 hrs by Annexin V/PI staining based flow cytometric analysis (reference value: 2.38 %); format: functional
# Kasumi 1 [23] = assay: Upregulation of KLF2 gene expression in human Kasumi 1 cells at IC50 concentration incubated for 24 hrs by RNA sequencing analysis; format: functional, cell-based
# MCF-10A = assay: Cytotoxicity against human MCF-10A cells assessed as cell viability incubated for 24 hrs by MTT assay; format: toxicity, cell-based
# Kasumi 1 [24] = assay: Induction of cell cycle arrest in human Kasumi 1 cells assessed as increase in cells at G2/M phase at IC50 concentration incubated for 24 hrs by PI staining based flow cytometric analysis; format: functional
# Kasumi 1 [25] = assay: Downregulation of PIM1 gene expression in human Kasumi 1 cells at IC50 concentration incubated for 24 hrs by RNA sequencing analysis; format: functional, cell-based
# THP-1 = assay: Cytotoxicity against human THP-1 cells harboring chromosomal translocation(9;11) assessed as reduction in cell viability incubated for 24 hrs by MTT assay; format: functional, cell-based; settings: THP-1, 24 h
# Kasumi 1 [26] = assay: Induction of cell cycle arrest in human Kasumi 1 cells assessed as decrease in cells at S phase at IC50 concentration incubated for 24 hrs by PI staining based flow cytometric analysis; format: functional
# Kasumi 1 [27] = assay: Upregulation of NR5A1 gene expression in human Kasumi 1 cells at IC50 concentration incubated for 24 hrs by RNA sequencing analysis; format: functional, cell-based
# Kasumi 1 [28] = assay: Induction of cell cycle arrest in human Kasumi 1 cells assessed as increase in cells at G1 phase at IC50 concentration incubated for 24 hrs by PI staining based flow cytometric analysis (reference value: 66.25 %); format: functional
# Kasumi 1 [29] = assay: Effect on hypoxia pathway related protein expression in human Kasumi 1 cells by GSEA; format: functional, cell-based
# MDA-MB-231 = assay: Cytotoxicity against human MDA-MB-231 cells assessed as cell viability at 1 to 50 uM incubated for 24 hrs by MTT assay; format: functional, cell-based; settings: dose 1-50 µM
# Kasumi 1 [30] = assay: Downregulation of estrogen pathway related genes in human Kasumi 1 cells at IC50 concentration incubated for 24 hrs by RNA sequencing analysis; format: functional, cell-based
# Kasumi 1 [31] = assay: Downregulation of E2F target related genes in human Kasumi 1 cells at IC50 concentration incubated for 24 hrs by RNA sequencing analysis; format: functional, cell-based
# Kasumi 1 [32] = assay: Upregulation of interferon-gamma response related genes in human Kasumi 1 cells at IC50 concentration incubated for 24 hrs by RNA sequencing analysis; format: functional, cell-based
# Kasumi 1 [33] = assay: Effect on adipogenesis pathway related protein expression in human Kasumi 1 cells by GSEA; format: functional, cell-based
# Kasumi 1 [34] = assay: Induction of apoptosis in human Kasumi 1 cells assessed as late apoptotic cells at IC50 concentration incubated for 24 hrs by Annexin V/PI staining based flow cytometric analysis (reference value: 2.07 %); format: functional
# Kasumi 1 [35] = assay: Downregulation of TNF-alpha signaling related genes in human Kasumi 1 cells at IC50 concentration incubated for 24 hrs by RNA sequencing analysis; format: functional, cell-based
# Kasumi 1 [36] = assay: Upregulation of CSF3R gene expression in human Kasumi 1 cells at IC50 concentration incubated for 24 hrs by RNA sequencing analysis; format: functional, cell-based
# Kasumi 1 [37] = assay: Induction of cell cycle arrest in human Kasumi 1 cells assessed as increase in cells at G2 phase at IC50 concentration incubated for 24 hrs by PI staining based flow cytometric analysis (reference value: 6.65 %); format: functional
# CAL-27 = assay: Cytotoxicity against human CAL-27 cells assessed as cell viability at 1 to 50 uM incubated for 24 hrs by MTT assay; format: functional, cell-based; settings: dose 1-50 µM
# Kasumi 1 [38] = assay: Downregulation of G2M checkpoint related genes in human Kasumi 1 cells at IC50 concentration incubated for 24 hrs by RNA sequencing analysis; format: functional, cell-based
# Kasumi 1 [39] = assay: Upregulation of DACH1 gene expression in human Kasumi 1 cells at IC50 concentration incubated for 24 hrs by RNA sequencing analysis; format: functional, cell-based
compound,measurement,setting,value
CN1C(=O)C(C23CC4CC(CC(C4)C2)C3)Nc2ccccc21 (stereo not drawn),Activity,Kasumi 1 [1],>30%
O=C1C(C23CC4CC(CC(C4)C2)C3)Nc2ccccc2N1c1ccc2ccccc2c1 (stereo not drawn),Activity,Kasumi 1 [1],>30%
Cc1cc2c(cc1C)N(Cc1ccccc1)C(=O)C(C13CC4CC(CC(C4)C1)C3)N2 (stereo not drawn),Activity,Kasumi 1 [1],>30%
Cc1ccc(CN2C(=O)C(C34CC5CC(CC(C5)C3)C4)Nc3ccccc32)cc1 (stereo not drawn),Activity,Kasumi 1 [1],>30%
O=C1C(C23CC4CC(CC(C4)C2)C3)Nc2ccccc2N1c1ccccc1 (stereo not drawn),Activity,Kasumi 1 [2],Active
same,Activity,A549,inactive
same,Activity,Kasumi 1 [3],Active
same,Activity,Kasumi 1 [4],Active
same,Activity,[5],Non-toxic
same,Activity,Kasumi 1 [6],18.69%
same,IC50,Kasumi 1 [7],2.09 µM
same,Activity,Kasumi 1 [8],Active
same,Activity,Kasumi 1 [9],Active
same,Activity,Kasumi 1 [10],Active
same,Activity,Kasumi 1 [11],Active
same,Activity,ARPE-19,Non-toxic
same,Activity,Kasumi 1 [12],Active
same,Activity,Kasumi 1 [13],Active
same,Activity,Kasumi 1 [14],Active
same,Activity,Kasumi 1 [15],Active
same,Activity,Kasumi 1 [16],0.02%
same,Activity,Kasumi 1 [17],Active
same,Activity,Kasumi 1 [18],Active
same,Activity,Kasumi 1 [19],83.88%
same,Activity,Kasumi 1 [20],Active
same,Activity,Kasumi 1 [21],Active
same,Activity,Kasumi 1 [22],10.74%
same,Activity,Kasumi 1 [23],Active
same,Activity,MCF-10A,Non-toxic
same,Activity,Kasumi 1 [24],Active
same,Activity,Kasumi 1 [25],Active
same,IC50,THP-1,40.9 µM
same,Activity,Kasumi 1 [26],Active
same,Activity,Kasumi 1 [27],Active
same,Activity,Kasumi 1 [28],68.99%
same,Activity,Kasumi 1 [29],Active
same,Activity,MDA-MB-231,inactive
same,Activity,Kasumi 1 [30],Active
same,Activity,Kasumi 1 [31],Active
same,Activity,Kasumi 1 [32],Active
same,Activity,Kasumi 1 [33],Active
same,Activity,Kasumi 1 [34],5.37%
same,Activity,Kasumi 1 [35],Active
same,Activity,Kasumi 1 [36],Active
same,Activity,Kasumi 1 [37],12.31%
same,Activity,CAL-27,inactive
same,Activity,Kasumi 1 [38],Active
same,Activity,Kasumi 1 [1],<30%
same,Activity,Kasumi 1 [39],Active
CCN1C(=O)C(C23CC4CC(CC(C4)C2)C3)Nc2ccccc21 (stereo not drawn),Activity,Kasumi 1 [1],>30%
Cc1ccc(CN2C(=O)C(C34CC5CC(CC(C5)C3)C4)Nc3cc(-c4ccc5c(c4)NC(C46CC7CC(CC(C7)C4)C6)C(=O)N5Cc4ccc(C)cc4)ccc32)cc1 (stereo not drawn),Activity,Kasumi 1 [1],>30%
O=C1C(C23CC4CC(CC(C4)C2)C3)Nc2cc(Cl)c(Cl)cc2N1Cc1ccccc1 (stereo not drawn),Activity,Kasumi 1 [1],>30%
CSc1ccc(CN2C(=O)C(C34CC5CC(CC(C5)C3)C4)Nc3ccccc32)cc1 (stereo not drawn),Activity,Kasumi 1 [1],>30%
O=C1C(C23CC4CC(CC(C4)C2)C3)Nc2ccccc2N1c1ccc(OC(F)(F)F)cc1 (stereo not drawn),Activity,Kasumi 1 [1],>30%
Cc1ccccc1CN1C(=O)C(C23CC4CC(CC(C4)C2)C3)Nc2ccccc21 (stereo not drawn),Activity,Kasumi 1 [1],>30%
C=CCN1C(=O)C(C23CC4CC(CC(C4)C2)C3)Nc2ccccc21 (stereo not drawn),IC50,Kasumi 1 [7],37.5 µM
same,IC50,THP-1,> 50 µM
same,Activity,Kasumi 1 [1],<30%
